Source: article PMC12687453, “Plasma membrane folate transport in fungi and plants is mediated by members of the oligopeptide transporter (OPT) family” (Biochemical Journal, 2025)

Assays:
Test in all cases: LC-MS/MS cellular uptake versus vector control
Type in all cases: cell-based
AfOPTH = biological target: T1, AfOPTH (Aspergillus fumigatus, UniProt Q4WAD5); conditions: 100 uM folinic acid, opt1-delta cells, pH 5.5, 30 °C, 5 min
T1 construct: gene AFUA_7G00910; plasmid-expressed in S. cerevisiae opt1-delta cells (MET25 promoter; TEF)
T1 sequence (Q4WAD5 1-757): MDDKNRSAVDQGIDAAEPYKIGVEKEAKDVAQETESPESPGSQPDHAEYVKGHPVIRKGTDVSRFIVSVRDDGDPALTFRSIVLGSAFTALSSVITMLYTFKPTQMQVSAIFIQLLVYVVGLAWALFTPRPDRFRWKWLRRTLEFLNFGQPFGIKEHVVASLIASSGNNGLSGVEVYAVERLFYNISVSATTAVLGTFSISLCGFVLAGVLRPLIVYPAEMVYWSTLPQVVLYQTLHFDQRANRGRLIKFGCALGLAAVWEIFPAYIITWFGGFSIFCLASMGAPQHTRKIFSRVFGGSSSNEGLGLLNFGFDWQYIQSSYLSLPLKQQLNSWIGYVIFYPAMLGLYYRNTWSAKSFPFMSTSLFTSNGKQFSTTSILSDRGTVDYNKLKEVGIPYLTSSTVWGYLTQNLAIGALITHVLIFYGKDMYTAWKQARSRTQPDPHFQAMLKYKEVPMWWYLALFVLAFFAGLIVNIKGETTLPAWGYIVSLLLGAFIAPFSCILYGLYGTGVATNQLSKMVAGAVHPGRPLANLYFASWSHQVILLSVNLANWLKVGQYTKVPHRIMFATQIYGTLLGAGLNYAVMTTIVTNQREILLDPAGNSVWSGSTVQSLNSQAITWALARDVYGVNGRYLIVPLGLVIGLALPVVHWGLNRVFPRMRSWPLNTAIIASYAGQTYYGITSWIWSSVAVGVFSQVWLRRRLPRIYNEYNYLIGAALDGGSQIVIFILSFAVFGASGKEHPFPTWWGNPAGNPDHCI

AtOPT2 = biological target: T2, AtOPT2 (Arabidopsis thaliana, UniProt O04514); conditions: 100 uM folinic acid, opt1-delta cells, pH 5.5, 30 °C, 5 min
T2 construct: gene OPT2; cDNA from Arabidopsis Biological Resource Center, TEF promoter plasmid, in S. cerevisiae opt1-delta cells
T2 sequence (O04514 1-734): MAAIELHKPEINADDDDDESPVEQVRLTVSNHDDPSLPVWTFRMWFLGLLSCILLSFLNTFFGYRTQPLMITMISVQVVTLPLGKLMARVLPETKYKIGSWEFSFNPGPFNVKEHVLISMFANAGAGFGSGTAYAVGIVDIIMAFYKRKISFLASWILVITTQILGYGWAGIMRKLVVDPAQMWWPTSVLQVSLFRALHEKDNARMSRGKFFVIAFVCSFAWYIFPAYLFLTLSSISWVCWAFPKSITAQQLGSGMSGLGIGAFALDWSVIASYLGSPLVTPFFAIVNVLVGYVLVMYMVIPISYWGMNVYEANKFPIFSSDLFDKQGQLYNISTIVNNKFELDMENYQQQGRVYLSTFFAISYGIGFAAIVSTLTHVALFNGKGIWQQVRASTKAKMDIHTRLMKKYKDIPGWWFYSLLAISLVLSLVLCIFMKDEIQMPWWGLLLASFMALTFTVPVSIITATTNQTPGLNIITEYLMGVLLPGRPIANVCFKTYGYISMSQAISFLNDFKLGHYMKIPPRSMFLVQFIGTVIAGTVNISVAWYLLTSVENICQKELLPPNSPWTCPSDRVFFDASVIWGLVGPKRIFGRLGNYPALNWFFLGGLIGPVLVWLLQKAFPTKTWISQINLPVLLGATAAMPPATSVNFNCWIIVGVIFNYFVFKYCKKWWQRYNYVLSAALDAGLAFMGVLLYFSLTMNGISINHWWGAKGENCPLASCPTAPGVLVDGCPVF

CaOPT1 = biological target: T3, CaOPT1 (Candida albicans, UniProt Q5YBA3); conditions: 100 uM folinic acid, opt1-delta cells, pH 5.5, 30 °C, 5 min
T3 construct: gene OPT1; TEF promoter plasmid, expressed in S. cerevisiae opt1-delta cells
T3 sequence (Q5YBA3 1-783): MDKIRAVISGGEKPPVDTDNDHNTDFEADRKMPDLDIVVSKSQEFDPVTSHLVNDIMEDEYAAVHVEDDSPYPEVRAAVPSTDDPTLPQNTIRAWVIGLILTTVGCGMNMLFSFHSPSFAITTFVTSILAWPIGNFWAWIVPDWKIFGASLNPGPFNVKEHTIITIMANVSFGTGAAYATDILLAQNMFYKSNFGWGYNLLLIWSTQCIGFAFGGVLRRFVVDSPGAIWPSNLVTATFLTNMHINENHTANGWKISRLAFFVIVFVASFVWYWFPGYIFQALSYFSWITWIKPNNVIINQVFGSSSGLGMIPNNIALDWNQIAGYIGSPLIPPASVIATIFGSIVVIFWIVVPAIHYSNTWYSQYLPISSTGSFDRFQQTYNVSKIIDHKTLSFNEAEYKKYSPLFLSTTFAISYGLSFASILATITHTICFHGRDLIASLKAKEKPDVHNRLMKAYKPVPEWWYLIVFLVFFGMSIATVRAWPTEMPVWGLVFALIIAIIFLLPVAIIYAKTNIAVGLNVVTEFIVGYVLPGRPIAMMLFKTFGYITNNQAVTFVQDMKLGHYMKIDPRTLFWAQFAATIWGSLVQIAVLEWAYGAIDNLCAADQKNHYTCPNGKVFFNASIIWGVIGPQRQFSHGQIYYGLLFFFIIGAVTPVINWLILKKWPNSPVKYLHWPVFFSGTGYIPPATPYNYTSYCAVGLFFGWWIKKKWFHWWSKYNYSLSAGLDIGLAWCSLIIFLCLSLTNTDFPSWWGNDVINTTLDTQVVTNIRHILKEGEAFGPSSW

Opt1p/Hgt1p (ScOPT1) = biological target: T4, Opt1p/Hgt1p (ScOPT1) (Saccharomyces cerevisiae, UniProt P40897); conditions: 100 uM folinic acid, opt1-delta cells, pH 5.5, 30 °C; time course
T4 construct: gene OPT1; full-length plasma membrane transporter, TEF promoter plasmid, in S. cerevisiae opt1-delta cells
T4 sequence (P40897 1-799): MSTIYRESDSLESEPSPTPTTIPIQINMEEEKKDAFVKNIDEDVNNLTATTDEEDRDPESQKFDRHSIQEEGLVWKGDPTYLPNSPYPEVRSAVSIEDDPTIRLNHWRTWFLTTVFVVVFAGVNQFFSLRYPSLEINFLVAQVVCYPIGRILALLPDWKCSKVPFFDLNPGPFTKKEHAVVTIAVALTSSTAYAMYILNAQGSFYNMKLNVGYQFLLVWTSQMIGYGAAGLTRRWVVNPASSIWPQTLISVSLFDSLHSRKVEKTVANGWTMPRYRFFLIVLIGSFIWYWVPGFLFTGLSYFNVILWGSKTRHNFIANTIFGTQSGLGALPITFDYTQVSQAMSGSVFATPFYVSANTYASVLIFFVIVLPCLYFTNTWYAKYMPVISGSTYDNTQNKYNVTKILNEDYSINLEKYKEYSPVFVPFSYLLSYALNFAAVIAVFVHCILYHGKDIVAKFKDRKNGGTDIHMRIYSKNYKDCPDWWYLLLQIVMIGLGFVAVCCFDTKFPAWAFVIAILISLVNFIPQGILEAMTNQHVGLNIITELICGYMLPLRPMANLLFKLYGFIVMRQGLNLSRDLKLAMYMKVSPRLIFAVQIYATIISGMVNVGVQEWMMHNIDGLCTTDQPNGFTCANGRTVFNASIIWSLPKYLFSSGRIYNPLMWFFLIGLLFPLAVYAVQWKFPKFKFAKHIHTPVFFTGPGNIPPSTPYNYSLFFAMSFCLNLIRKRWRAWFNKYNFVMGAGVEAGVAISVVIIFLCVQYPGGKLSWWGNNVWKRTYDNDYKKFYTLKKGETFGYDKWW

AtOPT4 = biological target: T5, AtOPT4 (Arabidopsis thaliana, UniProt Q9FME8); conditions: 100 uM folinic acid, opt1-delta cells, pH 5.5, 30 °C, 5 min
T5 construct: gene OPT4; cDNA from Arabidopsis Biological Resource Center, TEF promoter plasmid, in S. cerevisiae opt1-delta cells
T5 sequence (Q9FME8 2-729): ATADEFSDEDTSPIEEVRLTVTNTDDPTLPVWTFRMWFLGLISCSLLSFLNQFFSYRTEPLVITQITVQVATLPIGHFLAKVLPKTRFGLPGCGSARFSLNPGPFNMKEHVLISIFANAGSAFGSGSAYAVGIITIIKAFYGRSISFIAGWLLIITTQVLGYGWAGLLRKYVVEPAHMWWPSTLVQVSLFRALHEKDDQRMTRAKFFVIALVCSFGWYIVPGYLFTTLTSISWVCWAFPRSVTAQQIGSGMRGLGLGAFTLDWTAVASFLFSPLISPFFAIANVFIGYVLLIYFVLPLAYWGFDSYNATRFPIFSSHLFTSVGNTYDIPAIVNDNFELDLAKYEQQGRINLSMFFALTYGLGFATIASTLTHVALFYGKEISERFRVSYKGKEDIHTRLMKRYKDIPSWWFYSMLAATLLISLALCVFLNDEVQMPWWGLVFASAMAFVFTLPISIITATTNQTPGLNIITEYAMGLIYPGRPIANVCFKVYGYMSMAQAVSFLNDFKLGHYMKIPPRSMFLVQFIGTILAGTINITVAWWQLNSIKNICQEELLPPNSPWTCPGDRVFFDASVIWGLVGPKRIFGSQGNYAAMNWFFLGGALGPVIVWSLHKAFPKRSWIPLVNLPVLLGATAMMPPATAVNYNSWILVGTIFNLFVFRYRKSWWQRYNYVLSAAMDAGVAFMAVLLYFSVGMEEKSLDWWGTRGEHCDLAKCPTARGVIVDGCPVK

AtOPT6 = biological target: T6, AtOPT6 (Arabidopsis thaliana, UniProt Q9T095); conditions: 100 uM folinic acid, opt1-delta cells, pH 5.5, 30 °C, 5 min
T6 construct: gene OPT6; cDNA from Arabidopsis Biological Resource Center, TEF promoter plasmid, in S. cerevisiae opt1-delta cells
T6 sequence (Q9T095 1-736): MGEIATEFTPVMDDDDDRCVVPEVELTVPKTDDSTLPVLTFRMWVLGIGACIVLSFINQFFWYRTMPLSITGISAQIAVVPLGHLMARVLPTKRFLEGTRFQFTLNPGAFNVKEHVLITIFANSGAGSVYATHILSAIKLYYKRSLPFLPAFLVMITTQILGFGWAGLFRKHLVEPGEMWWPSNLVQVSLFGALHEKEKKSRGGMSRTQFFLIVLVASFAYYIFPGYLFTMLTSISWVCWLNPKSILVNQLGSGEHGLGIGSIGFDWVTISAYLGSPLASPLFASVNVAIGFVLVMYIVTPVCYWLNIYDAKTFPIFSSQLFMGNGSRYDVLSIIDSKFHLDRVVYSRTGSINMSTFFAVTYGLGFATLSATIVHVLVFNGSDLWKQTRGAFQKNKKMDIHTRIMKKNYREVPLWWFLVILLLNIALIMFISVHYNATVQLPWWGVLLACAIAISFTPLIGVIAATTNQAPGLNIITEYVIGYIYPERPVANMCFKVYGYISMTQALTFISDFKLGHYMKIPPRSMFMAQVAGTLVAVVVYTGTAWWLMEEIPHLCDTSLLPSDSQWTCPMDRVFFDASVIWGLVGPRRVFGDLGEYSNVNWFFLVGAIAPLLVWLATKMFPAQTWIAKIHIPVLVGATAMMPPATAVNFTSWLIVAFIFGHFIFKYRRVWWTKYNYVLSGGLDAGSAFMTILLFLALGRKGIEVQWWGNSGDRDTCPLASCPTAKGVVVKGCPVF

## Nc1nc2c(c(=O)[nH]1)N(C=O)[C@@H](CNc1ccc(C(=O)N[C@@H](CCC(=O)O)C(=O)O)cc1)CN2 [folinic acid]
AfOPTH
  LC-MS/MS cellular uptake versus vector control: carried out uptake experiments with AfOPTH to confirm its ability to transport folates
AtOPT2
  LC-MS/MS cellular uptake versus vector control: AtOPT2 and AtOPT4 and even AtOPT6 contribute to folate transport
CaOPT1
  LC-MS/MS cellular uptake versus vector control: confirmed the ability of C. albicans CaOPT1 to transport folate by uptake assays
Opt1p/Hgt1p (ScOPT1)
  LC-MS/MS cellular uptake versus vector control: a rapid increase in intracellular folinic acid was observed in the cells bearing TEF-OPT1 plasmid
AtOPT4
  LC-MS/MS cellular uptake versus vector control: AtOPT2 and AtOPT4 and even AtOPT6 contribute to folate transport
AtOPT6
  LC-MS/MS cellular uptake versus vector control: AtOPT2 and AtOPT4 and even AtOPT6 contribute to folate transport
